Test results published in patent US11040981B2, “Pyrrolotriazine compounds and methods of inhibiting TAM kinases” (Syros Pharmaceuticals, Inc., priority 2017, dated 2021).

How the values were obtained:
MERTK = target: T1, MERTK (Homo sapiens, UniProt Q12866); assay: TR-FRET kinase activity assay, MERTK; assay type: biochemical; settings: for IC50: TR-FRET activity assay, ATP at Km, 60 minutes, read-out: Mer IC50; for FLT3/Mer ratio (FLT3 IC50/Mer IC50): ratio of Mer to FLT3: FLT3 IC50/Mer IC50
T1 sequence (Q12866 21-999): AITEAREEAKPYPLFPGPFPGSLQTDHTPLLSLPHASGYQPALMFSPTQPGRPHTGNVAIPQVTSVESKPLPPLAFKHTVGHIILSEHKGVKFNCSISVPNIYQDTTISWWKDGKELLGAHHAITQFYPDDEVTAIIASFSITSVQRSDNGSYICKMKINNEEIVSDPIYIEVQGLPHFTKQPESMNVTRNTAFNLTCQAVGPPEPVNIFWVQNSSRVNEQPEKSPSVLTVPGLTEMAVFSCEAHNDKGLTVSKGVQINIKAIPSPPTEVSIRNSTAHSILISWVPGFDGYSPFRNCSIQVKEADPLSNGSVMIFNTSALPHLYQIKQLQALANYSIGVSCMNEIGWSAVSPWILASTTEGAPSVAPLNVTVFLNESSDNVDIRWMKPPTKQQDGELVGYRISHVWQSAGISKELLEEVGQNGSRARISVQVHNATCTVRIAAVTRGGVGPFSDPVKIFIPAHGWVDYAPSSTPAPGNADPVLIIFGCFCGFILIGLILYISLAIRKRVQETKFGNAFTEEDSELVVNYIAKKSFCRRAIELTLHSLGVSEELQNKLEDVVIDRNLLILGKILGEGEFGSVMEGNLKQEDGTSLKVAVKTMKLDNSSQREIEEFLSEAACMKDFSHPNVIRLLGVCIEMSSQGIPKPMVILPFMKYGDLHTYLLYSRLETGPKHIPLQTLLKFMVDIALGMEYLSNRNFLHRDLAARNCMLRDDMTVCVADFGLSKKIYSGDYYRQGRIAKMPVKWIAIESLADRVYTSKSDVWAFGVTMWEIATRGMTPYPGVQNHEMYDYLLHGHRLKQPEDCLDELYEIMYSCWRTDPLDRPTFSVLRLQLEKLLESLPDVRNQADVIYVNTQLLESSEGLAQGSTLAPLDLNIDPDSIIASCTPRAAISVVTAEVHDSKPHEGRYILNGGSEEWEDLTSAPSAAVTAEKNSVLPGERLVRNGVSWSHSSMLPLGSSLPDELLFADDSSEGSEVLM
Procedure, shortened: (§1)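 Each kinase phosphorylated a fluorescent-labelled tyrosine peptide in 50 mM HEPES pH 7.5, 10 mM MgCl2, 1 mM EGTA, 0.01% Brij 35, 1 mM DTT at RT, with ATP at Km for that enzyme. After 60 min, EDTA quench and Eu-anti-phosphotyrosine antibody (30 min, dark); IC50 from TR-FRET decrease.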

TYRO3 = target: T2, TYRO3 (Homo sapiens, UniProt Q06418); assay: TR-FRET kinase activity assay, TYRO3; assay type: biochemical; settings: ATP at Km, 60 minutes
T2 sequence (Q06418 41-890): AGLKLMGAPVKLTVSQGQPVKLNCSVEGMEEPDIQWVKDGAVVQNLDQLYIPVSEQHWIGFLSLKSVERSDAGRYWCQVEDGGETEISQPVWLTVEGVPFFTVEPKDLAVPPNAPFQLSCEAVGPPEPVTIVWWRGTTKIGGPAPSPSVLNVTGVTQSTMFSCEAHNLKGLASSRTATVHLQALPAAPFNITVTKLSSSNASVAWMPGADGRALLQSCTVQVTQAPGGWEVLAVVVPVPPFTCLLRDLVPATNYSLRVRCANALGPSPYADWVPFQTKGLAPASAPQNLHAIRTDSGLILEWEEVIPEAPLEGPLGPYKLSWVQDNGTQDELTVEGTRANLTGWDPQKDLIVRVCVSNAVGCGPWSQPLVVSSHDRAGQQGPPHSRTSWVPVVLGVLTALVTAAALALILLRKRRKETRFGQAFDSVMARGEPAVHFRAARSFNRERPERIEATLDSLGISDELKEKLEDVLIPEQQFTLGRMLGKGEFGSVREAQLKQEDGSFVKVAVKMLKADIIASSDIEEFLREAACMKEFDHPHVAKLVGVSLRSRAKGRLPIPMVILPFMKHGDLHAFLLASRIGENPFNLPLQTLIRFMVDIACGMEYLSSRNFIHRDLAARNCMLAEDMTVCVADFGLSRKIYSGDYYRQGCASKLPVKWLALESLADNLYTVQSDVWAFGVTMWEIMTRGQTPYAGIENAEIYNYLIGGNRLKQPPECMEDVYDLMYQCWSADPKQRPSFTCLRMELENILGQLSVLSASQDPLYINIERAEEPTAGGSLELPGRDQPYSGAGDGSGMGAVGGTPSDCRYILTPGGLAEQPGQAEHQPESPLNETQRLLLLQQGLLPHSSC
Procedure, shortened: as §1

Row | IC50 (MERTK) [µM] | FLT3/Mer ratio (FLT3 IC50/Mer IC50) (MERTK) | IC50 (TYRO3) [µM] | Compound
1 | ≤ 0.1 | +++ (“+++” represents a ratio of >100) | ≤ 0.1 | COCC(C)Nc1ncc2c(C3CCN(C(C)=O)C3)cc(C3CCC(O)CC3)n2n1 (mixture of isomers) [Compound 383]
2 | ≤ 0.1 | +++ (“+++” represents a ratio of >100) | ≤ 0.1 | CC[C@H](C)Nc1ncc2c(-c3cncc(S(C)(=O)=O)c3)cc([C@H]3CC[C@H](O)CC3)n2n1 [Compound 119]
3 | ≤ 0.1 | +++ (“+++” represents a ratio of >100) | ≤ 0.1 | CC[C@H](C)Nc1ncc2c(-c3cncc(S(C)(=O)=O)c3)cc([C@H]3CC[C@@H](O)CC3)n2n1 [Compound 120]
4 | ≤ 0.1 | +++ (“+++” represents a ratio of >100) | ≤ 0.1 | CCCCC[C@H](C)Nc1ncc2c(C3=CCC(C(=O)O)CC3)cc([C@H]3CC[C@H](O)CC3)n2n1 (stereo partly drawn) [Compound 122, 4-(2-((S)-heptan-2-ylamino)-7-((trans)-4-hydroxycyclohexyl)pyrrolo[2,1-f][1,2,4]triazin-5-yl)cyclohex-3-enecarboxylic acid]
5 | ≤ 0.1 | +++ (“+++” represents a ratio of >100) | 0.1 to 1 | CCC(C)Nc1ncc2c(C)cc(C3CCC(O)CC3)n2n1 (stereo not drawn) [Compound 123]
6 | ≤ 0.1 | +++ (“+++” represents a ratio of >100) | ≤ 0.1 | C[C@@H](CC(F)(F)F)Nc1ncc2c(-c3ccnc(N4CCOCC4)c3)cc([C@H]3CC[C@H](O)CC3)n2n1 [Compound 346]
7 | ≤ 0.1 | +++ (“+++” represents a ratio of >100) | ≤ 0.1 | CNC(=O)c1ncc(-c2cc([C@H]3CC[C@H](O)CC3)n3nc(N[C@@H](C)CC(F)(F)F)ncc23)cn1 [Compound 347]
8 | ≤ 0.1 | +++ (“+++” represents a ratio of >100) | ≤ 0.1 | COC[C@H](C)Nc1ncc2c(-c3cnn([C@H]4CCNC4=O)c3)cc([C@H]3CC[C@H](O)CC3)n2n1 [Compound 348]
9 | ≤ 0.1 | +++ (“+++” represents a ratio of >100) | ≤ 0.1 | COC[C@H](C)Nc1ncc2c(-c3cc([C@H]4CC[C@H](O)CC4)n4nc(N[C@@H](C)COC)ncc34)cc([C@H]3CC[C@H](O)CC3)n2n1 [Compound 349]
10 | ≤ 0.1 | +++ (“+++” represents a ratio of >100) | ≤ 0.1 | CC(C)Nc1ncc2c(-c3ccnc(N4CCOCC4)c3)cc([C@H]3CC[C@H](O)CC3)n2n1 [Compound 350]
11 | ≤ 0.1 | +++ (“+++” represents a ratio of >100) | ≤ 0.1 | CNC(=O)c1cc(-c2cc([C@H]3CC[C@H](O)CC3)n3nc(N[C@@H](C)CC(F)(F)F)ncc23)cc(C)n1 [Compound 353]
12 | ≤ 0.1 | +++ (“+++” represents a ratio of >100) | ≤ 0.1 | CNc1cc(-c2cc([C@H]3CC[C@H](O)CC3)n3nc(N[C@@H](C)COC)ncc23)ccn1 [Compound 354]
13 | ≤ 0.1 | +++ (“+++” represents a ratio of >100) | ≤ 0.1 | COC[C@H](C)Nc1ncc2c(-c3ccnc(N4CCS(=O)(=O)CC4)c3)cc([C@H]3CC[C@H](O)CC3)n2n1 [Compound 357]
14 | ≤ 0.1 | +++ (“+++” represents a ratio of >100) | ≤ 0.1 | COC[C@H](C)Nc1ncc2c(-c3ccnc(OC4COC4)c3)cc([C@H]3CC[C@H](O)CC3)n2n1 [Compound 358]
15 | ≤ 0.1 | +++ (“+++” represents a ratio of >100) | ≤ 0.1 | CNOc1cc(-c2cc([C@H]3CC[C@H](O)CC3)n3nc(N[C@@H](C)COC)ncc23)ccn1 [Compound 361]

Row | Compound | IC50 (MERTK) [µM] | FLT3/Mer ratio (FLT3 IC50/Mer IC50) (MERTK) | IC50 (TYRO3) [µM]
16 | CN1CCN(Cc2ccc(-c3cc(C4CCC(O)CC4)n4nc(NC5CCC5(C)C)ncc34)cc2)CC1 (mixture of isomers) [Compound 121] | ≤ 0.1 | ++ (“++” represents a ratio of between 10 and 100) | ≤ 0.1
17 | COC[C@H](C)Nc1ncc2c(-c3ccc(CN4CCN(C)CC4)cc3)cc([C@H]3CC[C@H](O)CC3)n2n1 (single isomer, unassigned) [Compound 124] | ≤ 0.1 | ++ (“++” represents a ratio of between 10 and 100) | ≤ 0.1
18 | CCCCC[C@H](C)Nc1ncc2c([C@H]3CC[C@@H](C(=O)O)CC3)cc([C@H]3CC[C@H](O)CC3)n2n1 [Compound 125, (cis)-4-(2-((S)-heptan-2-ylamino)-7-((trans)-4-hydroxycyclohexyl)pyrrolo[2,1-f][1,2,4]triazin-5-yl)cyclohexanecarboxylic acid] | ≤ 0.1 | ++ (“++” represents a ratio of between 10 and 100) | 0.1 to 1
19 | C[C@@H](CC(F)F)Nc1ncc2c(-c3cnn(C4COC4)c3)cc([C@H]3CC[C@H](O)CC3)n2n1 [Compound 351] | ≤ 0.1 | ++ (“++” represents a ratio of between 10 and 100) | ≤ 0.1
20 | CC(CC(F)F)Nc1ncc2c(-c3ccc(CN4CCN(C)CC4)cc3)cc(C3CCC(O)CC3)n2n1 (stereo not drawn) [Compound 352] | ≤ 0.1 | ++ (“++” represents a ratio of between 10 and 100) | ≤ 0.1
21 | COC[C@H](C)Nc1ncc2c(-c3ccnc(N4CCOCC4)c3)cc([C@H]3CC[C@H](O)CC3)n2n1 [Compound 355] | ≤ 0.1 | + (“+” represents a ratio of >2.0 and <10) | ≤ 0.1
22 | OC1CCC(c2cc(-c3ccnc(N4CCOCC4)c3)c3cnc(NC4CCOC4)nn23)CC1 (stereo not drawn) [Compound 356] | ≤ 0.1 | ++ (“++” represents a ratio of between 10 and 100) | ≤ 0.1
23 | OC1CCC(c2cc(-c3ccnc(N4CCOCC4)c3)c3cnc(NCCC4CC4)nn23)CC1 (stereo not drawn) [Compound 359] | ≤ 0.1 | + (“+” represents a ratio of >2.0 and <10) | ≤ 0.1
24 | CNS(=O)(=O)c1ccc(-c2cc([C@H]3CC[C@H](O)CC3)n3nc(N[C@@H](C)CC(F)(F)F)ncc23)cn1 [Compound 360] | ≤ 0.1 | ++ (“++” represents a ratio of between 10 and 100) | ≤ 0.1
25 | O[C@H]1CC[C@H](c2cc(-c3ccnc(N4CCOCC4)c3)c3cnc(N[C@H]4CCOC4)nn32)CC1 [Compound 362] | ≤ 0.1 | ++ (“++” represents a ratio of between 10 and 100) | ≤ 0.1
26 | O[C@H]1CC[C@H](c2cc(-c3ccnc(N4CCOCC4)c3)c3cnc(NCCC(F)(F)F)nn32)CC1 [Compound 363] | ≤ 0.1 | + (“+” represents a ratio of >2.0 and <10) | ≤ 0.1
